Measurements published in patent publication US9642821B2, “MiR-182 in the diagnosis and treatment of cancer” (Dana-Farber Cancer Institute, Inc., priority 2010, dated 2017).

Key:
Format in all cases: cell-based
HL60 and K562 cells = assay: TPA differentiation of blood cells, miR-182 qRT-PCR; settings: TPA-treated blood cells
Method: (§1) HL60 cells (0.5×10^6 cells/ml) were differentiated either to neutrophils with 1.3% DMSO for 8 days or to macrophages with 16 nM tetradecanoyl phorbol acetate (TPA) for 3 days; K562 cells (0.5×10^6 cells/ml) to megakaryocytes with 16 nM phorbol myristate acetate (PMA) for 3 days or to erythrocytes with […] for 4 days. HL60 and K562 cells were grown in DMEM or RPMI-1640, respectively, supplemented with 10% (v/v) FBS. MCF-7 cells (10^6 cells/6 cm dish) were differentiated with 100 nM TPA for 3 days in Dulbecco's Modified Eagle Medium (DMEM) with 10% (v/v) fetal bovine serum (FBS) (Cunliffe et al., Cancer Res., 63:7158-66 (2003). The breast cancer lines and human mammary epithelial cells used in experiments shown in FIGS. 6 and 10, were cultured in media according to protocols from the American Type Culture Collection (ATCC®; Manassas, Va.) (www.atcc.org/).
Analysis of the miRNAs of the miR-183 cluster was conducted using qPCR using the TaqMan MicroRNA Assay from Applied Biosystems as per the manufacturer's instructions and normalized to RNU6B snRNA. Analysis of mRNA expression was carried out with qPCR using the SYBR Green master mix (Applied Biosystems, Foster City, Calif.) according to the manufacture's manual and the BioRad iCycler. […]

MCF7 cells = assay: TPA treatment of MCF7 cells, cell cycle analysis; settings: breast cancer lines (MCF7), 100 nM TPA
Method: as §1
MCF-7 cells were differentiated with 100 nM TPA. At day 0, 1, 2, and 3 cells were collected, fixed with 70% cold ethanol and stored at −20° C. Permeabilized cells were centrifuged, washed once with PBS, and incubated for 30 minutes in propidium iodide (PI)/RNase Staining Buffer (BD Pharmingen, San Diego, Calif.) at 25° C. before flow cytometric analysis.

PARP = PARP activity assay (universal PARP chemiluminescent kit) in MDA-MB231 cells; settings: MDA-MB231, increasing concentrations, 100 μM H2O2
Method: MDA-MB231 cells (2×10^6) were plated in 10-cm tissue culture dishes overnight in duplicates. The cells were exposed to the indicated concentrations of 4-Amino-1,8-naphthalimide in phosphate buffered saline (PBS) for 10 minutes on ice followed by 100 μM H2O2 for 20 minutes on ice. The cells were then washed thrice in ice cold PBS for 8-10 minutes and incubated in complete medium with the indicated concentrations of 4-Amino-1,8-naphthalimide at 37° C. The cells were then lysed and PARP activity was measured using the universal PARP chemiluminescent assay kit (Trevigen, Gaithersburg, Md.) as per the manufacturer's instructions.

BRCA1 transcript = assay: Immunoprecipitation of HA-AGO1/miRNA complex, qRT-PCR of bound transcripts, MDA-MB231; settings: MDA-MB231, HA-AGO1 IP, normalized to 5S rRNA
Method: miR-182 cDNA and miR-17 cDNA was cloned from HL60 cDNA in pcDNA3.1-Puro expression vector (Invitrogen, Carlsbad, Calif.) using the following primers: […]
MDA-MB231 cells (0.5×10^6 cells) were co-transfected with 1 μg of HA-AGO1 (pIRES-FLAG/HA vector, Addgene) and 0.5 μg of expression vector for miR-182/miR-17 or miR-scr using Lipofectamine 2000. After 2 days cells were harvested using 400 μl lysis buffer (100 mM KCl, 5 mM MgCl2, 10 mM Hepes, pH 7.0, 0.5% Nonidet P-40) containing freshly added RNase inhibitor, RNaseOUT (Invitrogen, Carlsbad, Calif.) and Protease Inhibitor Cocktail (Roche, Basel, Switzerland). After centrifugation, a 50 μl aliquot of supernatant was taken as the input for subsequent RNA extraction. The remaining supernatant was gently shaken with HA-beads (HA-probe Santa Cruz sc-7392) for 4 h at 4° C. in spin columns (Pierce Spin Columns-Screw Cap). The columns were drained, washed and the retained beads were treated with 5 U DNaseI in NT2 buffer (50 mM Tris, pH7.4, 150 mM NaCl, 1 mM MgCl2, 0.05% Nonidet P-40) for 10 minutes at 37° C., washed with NT2 buffer and then treated with Proteinase K in NT2 buffer plus 1% SDS for 30 minutes at 55° C. […] RNA was reverse transcribed (see RNA isolation) and analyzed with qPCR for enrichment of mRNA of miR-182/miR-17 predicted targets.

BRCA1 = BRCA1 expression after ectopic miRNA overexpression in HL60 cells (immunoblot, qPCR); settings: HL60 cells transiently transfected with expression vectors, Western blot
Method: Analysis of the miRNAs of the miR-183 cluster was conducted using qPCR using the TaqMan MicroRNA Assay from Applied Biosystems as per the manufacturer's instructions and normalized to RNU6B snRNA. Analysis of mRNA expression was carried out with qPCR using the SYBR Green master mix (Applied Biosystems, Foster City, Calif.) according to the manufacture's manual and the BioRad iCycler. The mRNA (1 μg) was reverse transcribed with 50 ng random primers using 100 U moloney murine leukemia virus (MMLV) reverse transcriptase (Epicentre, Madison, Wis.) according to the manufacturer's manual. Results were normalized to 5SrRNA or GAPDH.
In each experiment, where Western blot analysis was done, a fraction of 0.2−0.5×10^6 cells was taken out at day, 3 or 4, post-transfection. Breast cancer cell lines were collected from 6 well tissue culture plates (0.5-1×10^6 cells). Cells lysates were prepared in RIPA buffer (150 mM NaCl, 1% NP-40, 0.5% sodium deoxycholate, 0.1% SDS, 50 mM Tris, pH 8.0). Lysates of 0.1×10^6 cells of each sample plus loading buffer were loaded on 8% SDS-PAGE gels, semi-dry transferred on nitrocellulose membrane, and probed with anti-BRCA1 antibody at a 1:500 dilution (CALBIOCHEM, MS110) and anti-tubulin antibody at a 1:10,000 dilution (Sigma, Clone B-5-1-2).

For “12-O-tetradecanoylphorbol-13-acetate [TPA]”, the miR-182 expression (HL60 and K562 cells) was “induces expression of miR-182” and the cell cycle state (MCF7 cells) was “leads to a post-mitotic state”.
For `Nc1ccc2c3c(cccc13)C(=O)NC2=O` [ANI, 4-Amino-1,8-naphthalimide], the PARP activity (PARP) was “PARP inhibition was confirmed” and the PARP activity (PARP; listed as 4-Amino-1,8-naphthalimide) was “inhibits PARP activity”.
With “miR-17: another miRNA predicted to target BRCA1; expression vector [reference compound]” the “association of miRNA/AGO1 complex with BRCA1 transcript” value (BRCA1 transcript) was “did not associate”.
“miR-183: miRNA of cluster-183, co-expressed with miR-182; expression vector (GUAUGGCACUGGUAGAAUUCACUGU; listed as Homo sapiens) [reference compound]” was tested, and the BRCA1 protein level (BRCA1) was “did not affect”.
